In article PMC11762957, “Rescue of Mutant CFTR Channel Activity by Investigational Co-Potentiator Therapy” (Biomedicines, 2025):

Molecular target: T1, p.Arg334Trp-CFTR (Homo sapiens, UniProt P13569, R334W)
T1 construct: expressed in transfected cells
Test: Micro-Ussing chamber measurements, polarized CFBE41o- monolayers expressing p.Arg334Trp-CFTR
Format: cell-based
Conditions: after Fsk 0.128 μM
Description: CFBE41o^− cells expressing p.Arg334Trp-CFTR were seeded onto collagen IV-coated Snap-well filter inserts (#734-1646, Corning, New York, NJ, USA) to establish polarized monolayers. When the transepithelial electrical resistance of cells was ≥1000 Ω·cm^2, micro-Ussing chambers were mounted to measure transepithelial voltage (Vte) and transepithelial resistance (Rte), as noted before. Briefly, after the equilibration period, baseline values were recorded and compounds were added sequentially: Fsk (0.128 μM), test compound(s), and Inh-172 (30 μM). Recorded Vte and Rte were used to calculate the equivalent short-circuit current (Isceq) using Ohm’s law: Isc = Vte/Rte.
Next, we validated the data obtained by the HS-YFP assay by measuring short-circuit currents in the polarized monolayers of CFBE41o^− cells expressing p.Arg334Trp-CFTR to assess the alterations in the CFTR-mediated Cl^− current. Upon the activation of the cAMP-dependent CFTR-mediated Cl^− transport by Fsk, there was a small lumen-negative response, indicating the residual function of p.Arg334Trp-CFTR (Figure 3A–F).

T1 sequence (P13569 whole entry R334W): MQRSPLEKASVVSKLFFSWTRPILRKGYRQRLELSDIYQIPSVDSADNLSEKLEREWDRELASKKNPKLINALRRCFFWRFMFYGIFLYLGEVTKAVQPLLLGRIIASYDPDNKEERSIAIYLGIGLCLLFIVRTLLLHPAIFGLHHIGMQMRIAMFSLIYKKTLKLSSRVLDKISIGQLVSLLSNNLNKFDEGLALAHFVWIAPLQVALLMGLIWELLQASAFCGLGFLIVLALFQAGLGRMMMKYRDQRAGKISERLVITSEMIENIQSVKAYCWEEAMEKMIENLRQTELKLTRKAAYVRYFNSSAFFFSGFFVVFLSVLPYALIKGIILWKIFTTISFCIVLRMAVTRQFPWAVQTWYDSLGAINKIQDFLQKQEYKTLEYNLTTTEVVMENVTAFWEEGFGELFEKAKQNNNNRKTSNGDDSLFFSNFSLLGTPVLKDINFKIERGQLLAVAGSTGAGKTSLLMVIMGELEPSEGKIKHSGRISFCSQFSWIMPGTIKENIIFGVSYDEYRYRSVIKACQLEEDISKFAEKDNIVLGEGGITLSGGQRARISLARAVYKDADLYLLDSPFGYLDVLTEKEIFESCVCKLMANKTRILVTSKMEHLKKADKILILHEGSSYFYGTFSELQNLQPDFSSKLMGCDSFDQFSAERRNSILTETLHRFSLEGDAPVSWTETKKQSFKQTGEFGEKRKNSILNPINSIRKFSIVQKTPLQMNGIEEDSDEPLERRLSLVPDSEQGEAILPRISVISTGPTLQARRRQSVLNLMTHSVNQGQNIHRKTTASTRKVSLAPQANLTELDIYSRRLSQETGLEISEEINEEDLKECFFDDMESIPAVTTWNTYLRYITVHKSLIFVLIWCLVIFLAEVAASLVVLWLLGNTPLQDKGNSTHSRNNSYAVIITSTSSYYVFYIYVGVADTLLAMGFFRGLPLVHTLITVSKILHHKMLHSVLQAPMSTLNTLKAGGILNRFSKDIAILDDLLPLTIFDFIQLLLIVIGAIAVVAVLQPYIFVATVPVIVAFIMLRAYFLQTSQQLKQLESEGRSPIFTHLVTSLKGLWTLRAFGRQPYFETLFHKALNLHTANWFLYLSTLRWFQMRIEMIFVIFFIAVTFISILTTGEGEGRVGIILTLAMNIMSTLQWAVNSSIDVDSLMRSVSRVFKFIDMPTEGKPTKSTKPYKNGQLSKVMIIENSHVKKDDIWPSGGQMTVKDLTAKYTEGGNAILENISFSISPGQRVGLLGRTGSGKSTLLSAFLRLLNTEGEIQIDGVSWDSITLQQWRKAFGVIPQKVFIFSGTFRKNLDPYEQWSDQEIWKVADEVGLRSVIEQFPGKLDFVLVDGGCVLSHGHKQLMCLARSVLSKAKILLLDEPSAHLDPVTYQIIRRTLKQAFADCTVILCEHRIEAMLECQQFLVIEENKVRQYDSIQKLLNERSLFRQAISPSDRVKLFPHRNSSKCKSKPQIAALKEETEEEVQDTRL

SMILES: CCOC(=O)c1ccc(-n2cc(C(O)c3ccc(Br)cc3)nn2)cc1 (centres unmarked) [LSO-150]
- Isceq, co-administration with VX-770 (VX-770 3 μM + LSO-150 3 μM or LSO-153 5 μM, vs single potentiator): further response
- Isceq (equivalent short-circuit current), single potentiator (acute, LSO-150 3 μM, LSO-153 5 μM, VX-770 3 μM, vs DMSO): increase in Isceq
